# Test results reported in patent US6743817B2, “Substituted fused pyrroleimines and pyrazoleimines” (Neurogen Corporation, priority 2000, dated 2004).
compound,measurement,value
COc1ccc(NC(=O)c2n[nH]c3c2C(=NC(C)C)CCC3)cc1F,melting point,259 to 261 °C (dec.)
